Our source for the IC50 values is ChEMBL document CHEMBL6092153, “Research progress of BRD4 in head and neck squamous cell carcinoma: Therapeutic application of novel strategies and mechanisms” (Bioorg Med Chem, 2024).

The structures appear in SMILES notation.

Data set [1] relates to FaDu. In words: Antiproliferative activity against human FaDu cells assessed as inhibition of cell growth measured after 72 hrs by CCK-8 assay. Format: functional, cell-based.
Data set [2] can be described thus: Antiproliferative activity against human HOC313 cells assessed as reduction in cell viability by MTT assay. Format: functional, cell-based.
Data set [3] concerns KYSE-510. Description: Antiproliferative activity against human KYSE-510 cells assessed as reduction in cell growth incubated for 48 hrs by MTT assay. Format: functional, cell-based. The following applies: KYSE-510, 48 h.
The subject of data set [4] is ECa-109 cell line. Description: Antiproliferative activity against human EC109 cells assessed as reduction in cell viability measured after 48 hrs by CCK-8 method. Particulars: ECa-109, 48 h. It is filed as functional, cell-based.
Data set [5] has as its system TE-1. In words: Antiproliferative activity against human TE-1 cells assessed as inhibition of cell growth by MTT assay. It is filed as functional, cell-based.
The test system of data set [6] is SAS. Description: Antiproliferative activity against human SAS cells assessed as reduction in cell viability by MTT assay. It is filed as functional, cell-based.
The nature of data set [7]: Antiproliferative activity against human HaCaT cells assessed as inhibition of cell growth incubated for 48 hrs by SRB assay. Format: toxicity, cell-based.
For data set [8], the system named is KYSE-450. In words: Antiproliferative activity against human KYSE-450 cells assessed as reduction in cell growth incubated for 48 hrs by MTT assay. It is filed as functional, cell-based. The following applies: KYSE-450, 48 h.
The test system of data set [9] is KYSE-150 cell line. Description: Antiproliferative activity against human KYSE-150 cell line assessed as inhibition of cell growth incubated for 48 hrs by CCK-8 assay. The following applies: KYSE-150, 48 h. Format: functional, cell-based.
Data set [10] deals with KYSE-140. Description: Antiproliferative activity against human KYSE-140 cells assessed as inhibition of cell growth by MTT assay. It is filed as functional, cell-based.

For the molecule `Cc1sc2c(c1C)C(c1ccc(Cl)cc1)=N[C@@H](CC(=O)OC(C)(C)C)c1nnc(C)n1-2`, the IC50 in data set [1] is 9.64 µM; in data set [2], 0.288 µM; in data set [3], 0.121 µM; in [4], 0.1 µM; in data set [5] it was 3.99 µM; in data set [6] it was 0.169 µM. For the same molecule, the results for the IC50 in data set [8], in [9] and in [10] were 0.124 µM, 55.4 µM and 4.16 µM, respectively. The IC50 at 48 h in data set [7] was 0.32 µM.
